Experimental data taken from patent US10463664B2, “Inhibitors of HSV nucleotidyl transferases and uses therefor” (Saint Louis University, priority 2013, dated 2019).

Tests used:
[1] = Single dose pharmacokinetic study after peroral ciclopirox olamine; assay type: in vivo, BALB/c mice; conditions: 100 mg/kg oral gavage
Experimental: Single dose pharmacokinetic study after peroral treatment with ciclopirox Olamine. Six week old BALB/c mice were treated with 100 mg/kg ciclopirox olamine by oral gavage. This is well below the oral toxicity level in mice of 1740 mg/kg (Spectrum Chemicals MSDS). At 15 min, 30 min, 1 h, 3 h and 5 h post-treatment, blood was collected from pairs of mice and the serum separated. Mice were then euthanized and trigeminal ganglia (TG), brainstems and corneas were dissected and frozen until tissue extraction was performed and the extracts analyzed by mass spectroscopy. Standardization to ciclopirox olamine was achieved using compound spiked into a matrix of relevant tissue homogenate from untreated mice.
Ciclopirox olamine tissue concentrations (μM) after oral gavage. Ciclopirox olamine has previously been used to treat mice by oral gavage (25 to 40 mg/kg) for up to 60 days, but, assessment of penetration into the cornea and nervous system after oral gavage needed to be evaluated as well as tissue concentration over time to estimate appropriate dosing. In a single dose pharmacokinetic study, mice were treated with 100 mg/kg ciclopirox olamine by oral gavage. Pairs of mice were euthanized at various times post-treatment. Ciclopirox olamine concentrations in plasma, corneas, trigeminal ganglia and brainstems were determined by mass spectroscopy (FIG. 10). […] Ciclopirox olamine concentrations in cornea and nervous system tissues were only ˜5-fold lower than that in the plasma and remained above the estimated EC90 until 5 hours post-treatment.

[2] = mouse, in vivo; cited from earlier work
HSV-1 = assay: Topical treatment of mice infected with HSV-1 on the cornea; assay type: in vivo; conditions: summary statement
Experimental: Compounds were administered at 1 μg/eye in 10% DMSO. Two mice were treated with 10% DMSO as a negative control. The corneal surface was swabbed once per day on days 1, 2, 4 and 5 post-infection and titer of virus shed from the epithelium was determined by standard plaque assay. On the fifth day post-infection mice were euthanized and the trigeminal ganglia (TG) and brainstems were dissected. The tissues were disrupted and virus in them quantified by plaque assay. […] Weight of individual mice was recorded daily. […] Saline was a negative control. On the fifth day post-infection mice were euthanized and the trigeminal ganglia (TG) and brainstems were dissected. The tissues were disrupted and virus in them quantified by plaque assay.
Body weight was monitored daily post-infection as a sensitive indicator of overall health (FIG. 12).
Infected mice treated with saline served as a negative control.

HCMV strain AD169 [3] = assay: HCMV plaque reduction assay in HFFs; assay type: cell-based, human cytomegalovirus; conditions: Human betaherpesvirus 5, AD169, 240 h, 10 days, read-out: EC50 against HCMV, plaque reduction assay
Experimental: (§1) HCMV plaque reduction EC50 and toxicity assays. Low passage primary HFFs were infected with HCMV strain AD169 in the presence of serial dilutions of the compounds from 0.032 to 100 μM. Ten days later the monolayers were stained with 1% neutral red solution in PBS. After rinsing, plaques were counted using a stereomicroscope and the EC50 was interpolated from the data. Cytotoxicity was measured using a plate-based assay in which compounds were added to HFFs at 0.032 to 100 μM. At the end of the incubation period, plates were stained for 1 h with a neutral red solution in PBS. The stain was then removed, the plates rinsed in PBS and dried, and dye internalized by viable cells was determined at OD550. CC50 values were interpolated from the data.
(§2) Compounds #41, 46, 49, 55, 56, and 59 and the FDA-approved, anti-HCMV drug ganciclovir were subsequently evaluated with plaque reduction and toxicity assays in HFFs. HFFs were infected with HCMV in the presence of serial dilutions of the compounds. After 10 days the cultures were stained with neutral red and plaques were counted. Compound cytotoxicity for uninfected cells was determined in the same manner except that neutral red uptake by viable cells was measured by optical density. […] The TI values for the five NTS inhibitors of HCMV ranged from 5 for compound #46 to 17 for #55 and 59. Therefore, NTS inhibitors can suppress HCMV replication in addition to inhibiting the HSVs.

HCMV strain AD169 [4] = assay: Anti-HCMV CPE inhibition assay (crystal violet) in HFFs; assay type: cell-based, human cytomegalovirus; conditions: Human betaherpesvirus 5, AD169, 336 h, 14 days, read-out: EC50 against HCMV, CPE inhibition assay
Experimental: (§3) Anti-HCMV CPE inhibition and cytotoxicity assays. HFFs were infected with HCMV strain AD169 in the presence of serial dilutions of the compounds from 0.0192 to 60 μM. Fourteen days later the monolayers were stained with crystal violet, and retained cell density was quantified using a multiplate autoreader (BioTek). Cytotoxicity was measured the same way, except that the cells were uninfected and neutral red internalization by viable cells was measured.
(§4) Antiviral efficacy against HCMV. The ability of select HSV inhibitors to inhibit replication of another major human herpesvirus pathogen, human cytomegalovirus (HCMV) (65) was tested. This was based on the inhibitors strong suppression of HSV-1 and HSV-2 and the prediction that other members of the herpesvirus family would be sensitive to NTS inhibitors due to their shared DNA replication mechanism. Compounds #41, 46, 49, 55, 56, and 59 and the FDA-approved anti-HCMV drug ganciclovir were evaluated with crystal violet CPE and neutral red toxicity assays in HFFs. HFFs were infected with HCMV in the presence of serial dilutions of the compounds that were most inhibitory for HSVs. After 14 days the monolayers were stained and cell density was determined by OD reading. Compound cytotoxicity for uninfected cells was determined in the same manner except that neutral red uptake by viable cells was measured. […] The TI values for the four NTS inhibitors of HCMV ranged from 4 for compound #41 to 38 for #56. Therefore, NTS inhibitors can suppress HCMV replication in addition to inhibiting the HSVs.

[5] = Neutral red cytotoxicity assay in uninfected HFFs (14 day, with CPE assay); assay type: cell-based, human; conditions: human, uninfected human foreskin fibroblasts (HFFs)
Experimental: as §3, §4

[6] = Neutral red cytotoxicity assay in HFFs (10 day, with plaque reduction assay); assay type: cell-based, human; conditions: human, uninfected primary human foreskin fibroblasts (HFFs), 10 day assay
Experimental: as §1, §2

Row | SMILES | Concentrations in cornea and nervous system tissues, fold lower than plasma [1] | Plasma concentration at time of uptake [1] | Free plasma concentration after 5 hours, fold above the estimated EC90 against HSV-1 ([1]; 5 hours) | Oral toxicity level in mice [2] | Overall health of mice as shown by maintenance of body weight (HSV-1) | EC50 (HCMV strain AD169 [3]) | EC50 (HCMV strain AD169 [4]) | CC50 at 14 days [5] | CC50 at 10 days [6]
1 | Cc1cc(C2CCCCC2)n(O)c(=O)c1 [Compound 41-E, Ciclopirox ethanolamine] | ~5 fold | ~30 µM | 10 fold | 1740 mg/kg | significantly improved the overall health | – | – | – | –
2 | Nc1nc(O)c2ncn(COC(CO)CO)c2n1 [Ganciclovir, reference compound] | – | – | – | – | – | 3.2 µM | 0.33 µM | > 300 µM | > 100 µM
